Data from US20060211575A1, “CONTROL FOR PLANT AND PLANT PRODUCT PATHOGENS” (W. NEUDORFF GMBH KG, priority 2005, published 2006).

Columns and labels:
Assay type in all cases: in vivo
[1] = system: rust (Cronartium ribicola); assay: Field test of betaines to control rust on black currants; conditions: 0.10% ai, black currant, resprayed every 7 to 10 days
From the text: The purpose of this test was to evaluate 6 betaines for controlling rust (Cronartium ribicola) on black currant. Following formation of compositions of Coco betaine, C16 betaine, C18:1 betaine, Coco amidopropyl betaine, C18:1 amidopropyl betaine, and Coco sulfo betaine having varying betaine concentrations (using the commercially available forms of the betaines as discussed herein and a water solvent), and a copper octanoate standard (formed from a commercially available form entitled “Soap Shield” from Gardens Alive, Ind., USA), the compositions/solution were sprayed to run off onto eight-year-old black currants. Every treatment had nine plants, and the plants were resprayed every 7 to 10 days.

[2] = system: powdery mildew (Sphaerotheca fuliginea); assay: Greenhouse test of betaines for controlling powdery mildew on dandelion
Description: The purpose of this test was to evaluate the control of powdery mildew (Sphaerotheca fuliginea) on dandelion (Taraxacum officinale). Compositions of C12 betaine, Coco betaine, C16 betaine, C18:1 betaine, Coco amidopropyl betaine, C18:1 amidopropyl betaine, and Coco sulfo betaine were formed using the commercially available forms of the betaines as disclosed herein. Additionally, a sulfur standard was prepared using a commercially available form of sulfur (Red Ball EM-53) from International Chem. Inc., USA. For each treatment, twelve 20 cm diameter dandelions were used, and at the start of the test, all of the leaves were trimmed off of the plants. The test evaluated disease development on fully formed leaves. Each composition was sprayed to run off the plants, and resprayed 3 times every 7 days. The plants were also reinoculated by placing diseased dandelions amongst the test plants.

[3] = system: rose blackspot (Diplocarpon rosae); assay: Field test of betaines to control blackspot on Altissimo roses; conditions: 0.2%
From the text: The purpose of this test was to evaluate various betaines for controlling rose blackspot (Diplocarpon rosae) on Altissimo roses under field conditions. Following formation of compositions of cetyl betaine, cocobetaine, and coco amidopropyl betaine using the commercially available forms of the betaines as disclosed herein as well as formation of a standard 0.2% sulfur solution, the compositions/solution were sprayed to run off onto mature Altissimo rose plants. Nine plants were used in each treatment, and the plants were resprayed every 7 to 10 days for over a 100 day period.
Table 1, below, illustrates the results obtained from treatments of cetyl betaine at various concentrations ranging from about 0.020% ai to 0.100% ai, as well as cocobetaine at a 0.05% ai concentration and coco amiodopropyl betaine at a 0.10% ai concentration.

Row | Molecule | Rust Sori Per 9 Plants [1] | Leaf Area Colonized by Powdery Mildew (%) ([2]; 0.1% ai) | Leaflets with Blackspot (%) ([3]; 75 DAT) | Leaflets with Blackspot (%) ([3]; 102 DAT) | Leaf Area Colonized by Powdery Mildew (%) ([2]; 0.2% ai)
1 | Copper octanoate [reference compound] | 135 |  |  |  | 
2 | CCCCCCCC/C=C\CCCCCCCC[N+](C)(C)CC(=O)[O-] [C18:1 betaine, oleyl betaine] | 550 | 2.3 |  |  | 
3 | S1SSSSSSS1 [Sulfur] |  |  | 0.8 | 1.5 | 0.0
4 | CCCCCCCC/C=C\CCCCCCCC(=O)NCCC[N+](C)(C)CC(=O)[O-] [C18:1 amidopropyl betaine, oleamidopropyl betaine] | 2121 | 0.9 |  |  | 
